Test results reported in publication PMC6947571, “An Orthologue of the Retinoic Acid Receptor (RAR) Is Present in the Ecdysozoa Phylum Priapulida” (Genes, 2019).

Molecular target: T1, HsaRARα LBD (Homo sapiens, UniProt P10276)
T1 construct: gene RARA; glutathione S-transferase fusion (pGEX-4T-1), E. coli BL21(DE3)
T1 sequence (P10276 183-417 limits assumed): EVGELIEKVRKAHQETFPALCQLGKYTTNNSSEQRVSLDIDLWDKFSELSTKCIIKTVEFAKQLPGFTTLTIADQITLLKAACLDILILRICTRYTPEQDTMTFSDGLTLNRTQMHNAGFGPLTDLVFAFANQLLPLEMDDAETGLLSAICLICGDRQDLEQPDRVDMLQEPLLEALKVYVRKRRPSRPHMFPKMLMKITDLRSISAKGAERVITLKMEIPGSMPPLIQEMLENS
Experiment: competitive radioligand binding, hydroxyapatite precipitation
Conditions: 4 °C, labelled compound, positive control

Structure (SMILES) | competitive radioligand binding, hydroxyapatite precipitation (10 nM [3H]ATRA or [3H]9cisRA displaced by unlabelled 9cisRA) | competitive radioligand binding, hydroxyapatite precipitation (10 nM [3H]ATRA displaced by unlabelled ATRA)
CC1=C(/C=C/C(C)=C\C=C\C(C)=C\C(=O)O)C(C)(C)CCC1 [9cisRA] | Competition by ATRA and 9cisRA with [^3H]ATRA and [^3H]9cisRA for binding to the LBD | –
CC1=C(/C=C/C(C)=C/C=C/C(C)=C/C(=O)O)C(C)(C)CCC1 [ATRA] | – | Competition by ATRA and 9cisRA with [^3H]ATRA and [^3H]9cisRA for binding to the LBD
